Read-outs that look alike come from different tables or passages of the source.
Key:
[1] = test system: E. coli K-12 BW25113 bearing the metagenomic plasmid library; experiment: Functional metagenomic screen of a soil library, gradient plate selection; type: cell-based, Escherichia coli; details: soil metagenomic library, 1.5–5 kb fragments, gradient plate, 30 °C, 24 h
E. coli K-12 BW25113 = experiment: microbe, parasite or virus in culture; type: cell-based, Escherichia coli
Text: Unless otherwise indicated, Minimal Salt (MS) medium was used in all experiments, including the laboratory evolution experiments. In line with previous, methodologically relevant laboratory evolution studies, the physical conditions (including the medium) were the same during the course of laboratory evolution and all forthcoming assays on the resulting resistant lines (e.g. MIC measurements). We previously optimized this medium for studying AMPs (1 g L^−1 (NH4)2SO4, 3 g L^−1 KH2PO4 and 7 g L^−1 K2HPO4 supplemented with 0.1 mM MgSO4, 0.54 µg mL^−1 FeCl3, 1 µg mL^−1 thiamine hydrochloride, 0.2% Casamino acids and 0.2% glucose)[19]. This medium is highly controlled and provides a reproducible environment for experimental evolution experiments. All components were obtained from Sigma-Aldrich.
(§1) MICs were determined using a standard serial broth dilution technique. Briefly, 11-step serial dilutions were prepared in 96-well microtiter plates with three replicates per strain and antimicrobial compound. Each experiment was repeated at least twice. 5 × 10^5 cells/mL were inoculated into each well, and the plates were incubated at 30 °C in case of E. coli K-12 BW25113, and its antibiotic and AMP-adapted lines, or 37 °C in case of the other bacterial species. […] Cell growth was monitored by measuring the optical density (OD600 value, Biotek Synergy 2 microplate reader was used for this purpose). […] Relative MIC was calculated as follows: MICrelative = MICevolved/MICcontrol.

[2] = test system: E. coli K-12 BW25113 carrying ASKA plasmids; experiment: microbe, parasite or virus in culture; type: cell-based, Escherichia coli; details: for MIC: Escherichia coli; for MIC / MIC value of E. coli K-12 BW25113 carrying the empty plasmid of the ASKA library / MIC value of E. coli K-12 BW25113 carrying the pooled plasmids of the ASKA library: MS medium + 10 µg mL−1 CHL + 500 µM IPTG, 5 × 10^5 cells, 16–18 h, 37 °C
Text: Bacterial gene amplification generates extensive genetic variation that can provide drug resistance[37],[38]. As gene amplification events tend to be genetically unstable and reduce bacterial fitness, they are transient in nature. Using the ASKA library, which comprises each E. coli ORF cloned into an expression vector[40], we have conducted a global survey to evaluate whether artificially amplified genes provide resistance to any of the 14 AMPs and 11 antibiotics tested. As chloramphenicol (CHL) was used as a selection marker for the ASKA plasmid, this antibiotic was not tested in this screen. E. coli K-12 BW25113 cells were transformed with the pooled plasmids of the ASKA library, and the genetically mixed populations were exposed to increasing levels of AMP or antibiotic stresses, respectively. In all cases, the employed AMP or antibiotic dosages were above the MIC of the wild type. For each drug, we identified the MIC provided in the pooled ASKA plasmid library, and compared it to the MIC of the wild-type strain carrying the empty ASKA plasmid.
The ASKA library (a complete set of E. coli K-12 ORF archive) includes every E. coli ORF cloned into an expression vector (pCA24N)[65]. Prior to screening, the ASKA plasmid collection was pooled and transformed into E. coli K-12 BW25113 strain[66]. The plasmid pool was created by pooling an equal aliquot of cells, each carrying different members of the ASKA library, followed by plasmid miniprep. Next, the plasmid pool was electroporated into E. coli K-12 BW25113 competent cells. […] For the MICs measurements 500 000 cells were inoculated in each well which represents ~100 times coverage of each library member. […] Prior to the measurements the cell population containing the pooled overexpression library or the control strain containing the empty vector were grown in three replicates in LB medium supplemented with 20 µg/mL CHL. As the culture reached high density (i.e., OD600 > 0.8), expression of the plasmid was induced by 50 µM IPTG for 1 h. Following induction, 5 × 10^5 bacterial cells were inoculated in three replicates into each well of the 96-well plate and incubated for 16–18 h at 37 °C. Following incubation the MIC values were determined by measuring optical densities in a plate reader (Biotek Synergy).

[3] = test system: E. coli K-12 BW25113 carrying single mutations; experiment: MIC change in single-mutation strains (basS L194R, mlaD a342del, waaY M1†); type: cell-based, Escherichia coli; details: mutations inserted individually into E. coli K-12 BW25113
E.coli K-12 BW25113 = type: cell-based, Escherichia coli; details: for MIC (freshly prepared AMP): plates inoculated immediately; for MIC (pre-incubated AMP): plates pre-incubated 72 hours before inoculation
Experimental: (§2) MICs were determined using a standard serial broth dilution technique. Briefly, 11-step serial dilutions were prepared in 96-well microtiter plates with three replicates per strain and antimicrobial compound. Each experiment was repeated at least twice. 5 × 10^5 cells/mL were inoculated into each well, and the plates were incubated at 30 °C in case of E. coli K-12 BW25113, and its antibiotic and AMP-adapted lines, or 37 °C in case of the other bacterial species. Plates were shaken at 300 r.p.m. during incubation for 24 and 18 h, respectively. Cell growth was monitored by measuring the optical density (OD600 value, Biotek Synergy 2 microplate reader was used for this purpose). […] Relative MIC was calculated as follows: MICrelative = MICevolved/MICcontrol.
Supplementary Table 7- Effect of incubation time on the minimum inhibitory concentration (MIC) of AMPs. We tested whether the prolonged incubation time can affect the MIC of AMPs. To test this, two sets of AMP containing MIC plates were prepared in parallel. The first set was immediately inoculated with E.coli K-12 BW25113, while the second set was pre-incubated 72 hours before inoculation with the […]
observed in the MIC between freshly prepared and pre-incubated plates. […]

S. enterica LT2 = type: cell-based, Salmonella enterica subsp. enterica serovar Typhimurium; details: starting strain; broth dilution, MS medium, 37 °C, 18 h
Experimental: (§3) Unless otherwise indicated, we used E. coli K-12 BW25113 in all high-throughput experiments. To investigate the impact of mutation rate on evolution of AMP resistance, we initiated laboratory evolution with a mutator strain E. coli mutD5 that carries mutations in the dnaQ gene (L73W and A164V).
as §2

A. baumannii ATCC 17978 = type: cell-based, Acinetobacter baumannii; details: starting strain; broth dilution, MS medium, 37 °C, 18 h
Experimental: as §3, §2

[4] = test system: E. coli ATCC 25922, S. enterica LT2, K. pneumoniae ATCC 10031, A. baumannii ATCC 17978; experiment: Laboratory evolution in pathogenic bacteria, statements for all four pathogens together; type: cell-based
Text: The tested pathogens initially sensitive to the AMPs and the antibiotics included Escherichia coli (ATCC® 25922™) (abbreviated as E. coli ATCC 25922), Salmonella enterica subsp. enterica serovar Typhimurium LT2 (abbreviated as S. enterica LT2), Klebsiella pneumoniae subsp. pneumoniae (Schroeter) Trevisan (ATCC® 10031™) (abbreviated as K. pneumoniae ATCC 10031) and Acinetobacter baumannii Bouvet and Grimont (ATCC® 17978™) (abbreviated as A. baumannii ATCC 17978).
The evolutionary protocol was designed to avoid population extinction and to ensure that populations with the highest level of resistance were propagated further. Starting with a subinhibitory drug concentration (Supplementary Data 8), resulting in ~50% growth inhibition, 10 parallel populations per drug were allowed to grow in Minimal Salts medium for 72 h and 300 r.p.m. E. coli K-12 BW25113 and E. coli mutD5 populations were incubated at 30 °C, while E. coli ATCC 25922, S. enterica LT2, K. pneumonia ATCC 10031, and A. baumannii ATCC 17978 were incubated at 37 °C. […] Prior to each transfer, cell growth was monitored by measuring the optical density at 600 nm (OD600 value, Biotek Synergy 2 microplate reader). Only populations with the highest drug concentration (and reaching OD600 > 0.2) were selected for further evolution. A chess-board layout was used on the plate to monitor potential cross-contamination events. […] E. coli mutD5 was adapted to TPII, also in 10 parallel evolving populations.
as §1, with “twice.” for “twice. 5 × 10^5 cells/mL were inoculated into each well, and the plates were incubated at 30 °C in case of E. coli K-12 BW25113, and its antibiotic and AMP-adapted lines, or 37 °C in case of the other bacterial species.”

E. coli ATCC 25922 = type: cell-based, Escherichia coli; details: starting strain; broth dilution, MS medium, 37 °C, 18 h
Experimental: as §3, §2

K. pneumoniae ATCC 10031 = type: cell-based, Klebsiella pneumoniae; details: starting strain; broth dilution, MS medium, 37 °C, 18 h
Experimental: as §3, §2

[5] = Escherichia coli, BW25113, 24 h, read-out: MIC
[6] = BW25113, Replicate 1, read-out: MIC value of E. coli K-12 BW25113 carrying the empty plasmid of the ASKA library
[7] = BW25113, Replicate 1, read-out: MIC value of E. coli K-12 BW25113 carrying the pooled plasmids of the ASKA library
[8] = BW25113, Replicate 2, read-out: MIC value of E. coli K-12 BW25113 carrying the empty plasmid of the ASKA library
[9] = BW25113, Replicate 2, read-out: MIC value of E. coli K-12 BW25113 carrying the pooled plasmids of the ASKA library
[10] = BW25113, Replicate 3, read-out: MIC value of E. coli K-12 BW25113 carrying the empty plasmid of the ASKA library
[11] = BW25113, Replicate 3, read-out: MIC value of E. coli K-12 BW25113 carrying the pooled plasmids of the ASKA library
[12] = starting wild-type strain of the evolution experiment, broth dilution, MS medium, 5 × 10^5 cells/mL, 30 °C, 24 h, MIC = OD600 < 0.05
[13] = time allowed for bacterial growth 24 hours
[14] = time allowed for bacterial growth 48 hours
[15] = time allowed for bacterial growth 72 hours

Molecule | Number of resistant contig [1] | MIC (E. coli K-12 BW25113; [5]) [µg/mL] | MIC [2, 6] [µg/mL] | MIC [2, 7] [µg/mL] | MIC [2, 8] [µg/mL] | MIC [2, 9] [µg/mL] | MIC [2, 10] [µg/mL] | MIC [2, 11] [µg/mL] | MIC value of E. coli K-12 BW25113 carrying the empty plasmid of the ASKA library ([2]; Replicate 1) [µg/mL] | MIC value of E. coli K-12 BW25113 carrying the pooled plasmids of the ASKA library ([2]; Replicate 1) [µg/mL] | MIC value of E. coli K-12 BW25113 carrying the empty plasmid of the ASKA library ([2]; Replicate 2) [µg/mL] | MIC value of E. coli K-12 BW25113 carrying the pooled plasmids of the ASKA library ([2]; Replicate 2) [µg/mL] | MIC value of E. coli K-12 BW25113 carrying the empty plasmid of the ASKA library ([2]; Replicate 3) [µg/mL] | MIC value of E. coli K-12 BW25113 carrying the pooled plasmids of the ASKA library ([2]; Replicate 3) [µg/mL] | MIC (E. coli K-12 BW25113; [12]) [µg/mL] | other results
O=C(N[C@H](CO)[C@H](O)c1ccc([N+](=O)[O-])cc1)C(Cl)Cl [CHL, Chloramphenicol] | 7 | 6.9 | – | – | – | – | – | – | – | – | – | – | – | – | – | –
NC[C@H]1O[C@H](O[C@H]2[C@H](O)[C@@H](O[C@H]3O[C@H](CO)[C@@H](O)[C@H](N)[C@H]3O)[C@H](N)C[C@@H]2N)[C@H](N)C[C@@H]1O [TOB, Tobramycin] | 13 | 3.4 | 1.49 | 2.15 | 1.24 | 2.58 | 1.49 | 2.58 | – | – | – | – | – | – | – | –
COc1cc(Cc2cnc(N)nc2N)cc(OC)c1OC [TRM, Trimethoprim] | 11 | – | 2 | 128 | 2 | 64 | 2 | 64 | – | – | – | – | – | – | – | increment in resistance level by the pooled ASKA library [2]: 32 fold; MIC (E. coli K-12 BW25113; Escherichia coli, BW25113, 24 h): 5.2 µg/mL
GIINTLQKYYRVRGGRAVLSLPKEEQIGKSTRGRKRRKK [HBD3, Human beta-defensin-3, clinically relevant antimicrobial peptide with human origin] | – | – | – | – | – | – | – | – | 195.36 | 405.09 | 195.36 | 337.58 | 281.31 | 281.31 | 1500 | resistance conferred by single mutations basS L194R, mlaD a342del, waaY M1† (in words) [3]: conferred resistance
KTKKKFLKKT [PXB, Polymyxin B, AMP used as a last-resort drug in the treatment of multidrug-resistant Gram-negative bacterial infections; from Sigma-Aldrich] | – | – | – | – | – | – | – | – | 3.18 | 3.18 | 3.18 | 3.18 | 3.18 | 3.18 | 2.5 | MIC (freshly prepared AMP) (E.coli K-12 BW25113; [13]): 4.2 µg/mL; MIC (freshly prepared AMP) (E.coli K-12 BW25113; [14]): 4.2 µg/mL; MIC (freshly prepared AMP) (E.coli K-12 BW25113; [15]): 4.2 µg/mL; MIC (pre-incubated AMP) (E.coli K-12 BW25113; [13]): 5 µg/mL; MIC (pre-incubated AMP) (E.coli K-12 BW25113; [14]): 5 µg/mL; MIC (pre-incubated AMP) (E.coli K-12 BW25113; [15]): 5 µg/mL; MIC (S. enterica LT2): 8 µg/mL; MIC (A. baumannii ATCC 17978): 2 µg/mL; resistance after laboratory evolution in pathogens (in words) ([4]; all four pathogenic species): a high level of PXB-resistance has emerged in all pathogens studied; increment of resistance level compared to the corresponding wild-type strain ([4]; certain lines, highest value over the four pathogens): ≤ 20,000 times; MIC (E. coli ATCC 25922): 6 µg/mL; MIC (K. pneumoniae ATCC 10031): 2 µg/mL

From publication PMC6778101 (Nature Communications, 2019)
